Results reported in patent EP4541797A1, “CAMPTOTHECIN DERIVATIVE, METHOD FOR PREPARING SAME, AND USE THEREOF” (Hangzhou Adcoris Biopharma Co., Ltd, priority 2022, dated 2024).
Where two headings read alike, the source gives them in different places.

How the values were obtained:
[1] = test system: SK-BR-3 cells; assay: Inhibitory activity on cancer cell growth (CCK-8, 72 h), SK-BR-3 cells; assay type: cell-based; conditions: human breast adenocarcinoma cells SK-BR-3, 72 h incubation
Description: (§1) Human esophageal cancer cells OE33, human breast adenocarcinoma cells SK-BR-3 and human gastric cancer cells NCI-N87 were cultured in RPMI1640 (Cellmax) supplemented with 10% fetal bovine serum (Cellmax) respectively. Cells in the exponential growth phase were diluted to a concentration of 1×10^5cells/mL by culture medium and added to 96-well cell culture plates at 100µL per well, then incubated overnight in a 37°C incubator with 5% CO2. On the following day, the test compounds and control compounds were diluted to concentrations of 10000 nM, 2000 nM, 400 nM, 80 nM, 16 nM, 3.2 nM, 0.64 nM, and 0.13 nM by culture medium and added to the 96-well cell culture plates at 2µL per well, with three replicate wells for each concentration. Negative control and blank control groups without the addition of compounds were supplemented with 2µL of the dilution liquid per well. After the addition of the compounds, the plates were returned to the 37°C incubator with 5% CO2 to continue incubation for 72 h. After incubation, the cell culture plates were removed, and the culture medium was aspirated using a pipette. Then, 100µL of culture medium containing 10% CCK-8 was added to each well, and the plates were incubated at 37°C for 3 h. After incubation, the plates were removed, kept in the dark, and placed in ELISA plate. Absorbance was measured at 630nm as the reference wavelength and 450nm as the test wavelength. The IC50 values (Tables 1-3) were calculated using the four-parameter logistic regression method in GraphPad, based on the absorbance values. SN38 (7-ethyl-10-hydroxycamptothecin) and 10CPT (10-hydroxycamptothecin) were used as control compounds. For the IC50 values, wherein "++++" indicates an IC50 < 50 nM; "+++" indicates an IC50 between 50 nM and 100 nM; "++" indicates an IC50 between 100 nM and 500 nM; and "+" indicates an IC50 > 500 nM. Table 1: Inhibitory activity of compounds to inhibit the growth of OE33 cells

[2] = test system: OE33 cells; assay: Inhibitory activity on cancer cell growth (CCK-8, 72 h), OE33 cells; assay type: cell-based; conditions: human esophageal cancer cells OE33, 72 h incubation
Description: as §1

[3] = Homo sapiens, SK-BR-3, 72 h, read-out: IC50
[4] = Homo sapiens, OE33, 72 h, read-out: IC50

Structure (SMILES) | IC50 [2, 4] [nM] | IC50 ([2]; Homo sapiens, OE33, 72 h) [nM] | further results
CC[C@@]1(O)C(=O)OCc2c1cc1n(c2=O)Cc2cc3c(CN4CCC(N)CC4)c(O)ccc3nc2-1 [Compound 1, 9-(1-(4-aminopiperidine))methyl-10-hydroxycamptothecin] | 100 to 500 |  | IC50 [1, 3]: 50 to 100 nM
CC[C@@]1(O)C(=O)OCc2c1cc1n(c2=O)Cc2cc3c(CN4CCNCC4)c(O)ccc3nc2-1 [Compound 2, 9-(1-piperazine)methyl-10-hydroxycamptothecin] |  | 50 to 100 | IC50 ([1]; Homo sapiens, SK-BR-3, 72 h): 50 to 100 nM
CC[C@@]1(O)C(=O)OCc2c1cc1n(c2=O)Cc2cc3c(CN4CCC(ON)CC4)c(O)ccc3nc2-1 [Compound 3, 9-(1-(4-aminoxypiperidine))methyl-10-hydroxycamptothecin] | 100 to 500 |  | 
CC[C@@]1(O)C(=O)OCc2c1cc1n(c2=O)Cc2cc3c(CN4CCC(OC)CC4)c(O)ccc3nc2-1 [Compound 5, 9-(1-(4-methoxypiperidine))methyl-10-hydroxycamptothecin] | 50 to 100 |  | IC50 [1, 3]: > 500 nM
CC[C@@]1(O)C(=O)OCc2c1cc1n(c2=O)Cc2cc3c(CN4CCN(C(=O)C5CC5)CC4)c(O)ccc3nc2-1 [Compound 6, 9-(1-(4-cyclopropylcarbonylpiperazine))methyl-10-hydroxycamptothecin] |  | 100 to 500 | IC50 ([1]; Homo sapiens, SK-BR-3, 72 h): 50 to 100 nM
CC[C@@]1(O)C(=O)OCc2c1cc1n(c2=O)Cc2cc3c(CN4CCN(C(C)=O)CC4)c(O)ccc3nc2-1 [Compound 7, 9-(1-(4-acetylpiperazine))methyl-10-hydroxycamptothecin] | 50 to 100 |  | IC50 [1, 3]: 50 to 100 nM
CC[C@@]1(O)C(=O)OCc2c1cc1n(c2=O)Cc2cc3c(CN4CCC(C(N)=O)CC4)c(O)ccc3nc2-1 [Compound 8] |  | 100 to 500 | IC50 ([1]; Homo sapiens, SK-BR-3, 72 h): 100 to 500 nM
CC[C@@]1(O)C(=O)OCc2c1cc1n(c2=O)Cc2cc3cc(O)ccc3nc2-1 [Compound 10CPT, 10-hydroxycamptothecin, reference compound] |  | < 50 | IC50 ([1]; Homo sapiens, SK-BR-3, 72 h): < 50 nM
CC[C@@]1(O)C(=O)OCc2c1cc1n(c2=O)Cc2cc3c(CN(C)CCCCN)c(O)ccc3nc2-1 [Compound 11, 9-(N-4-aminobutyl-N-methylamino)methyl-10-hydroxycamptothecin] |  | 100 to 500 | IC50 ([1]; Homo sapiens, SK-BR-3, 72 h): 100 to 500 nM
CC[C@@]1(O)C(=O)OCc2c1cc1n(c2=O)Cc2cc3c(CN(C)CCO)c(O)ccc3nc2-1 [Compound 12, 9-(N-methylhydroxyethylamino)methyl-10-hydroxycamptothecin] |  | 100 to 500 | IC50 ([1]; Homo sapiens, SK-BR-3, 72 h): 100 to 500 nM
CC[C@@]1(O)C(=O)OCc2c1cc1n(c2=O)Cc2cc3c(CN(C)CCN)c(O)ccc3nc2-1 [Compound 13, 9-(N-methyl-N-aminoethylamino)methyl-10-hydroxycamptothecin] | 100 to 500 |  | 
CC[C@@]1(O)C(=O)OCc2c1cc1n(c2=O)Cc2cc3c(CN(C)C4CCOCC4)c(O)ccc3nc2-1 [Compound 14, 9-(N-methyltetrahydropyran-4-amine)methyl-10-hydroxycamptothecin] |  | 100 to 500 | 
CC[C@@]1(O)C(=O)OCc2c1cc1n(c2=O)Cc2cc3c(CN(C)C4CCC(O)CC4)c(O)ccc3nc2-1 (stereo partly drawn) [Compound 16, 9-(N-methyl-trans-4-hydroxycyclohexylamine)methyl-10-hydroxycamptothecin] |  |  | IC50 ([2]; Homo sapiens, OE33, 72 h, numeric value or bound, read-out: IC50): 0.221 nM
CC[C@@]1(O)C(=O)OCc2c1cc1n(c2=O)Cc2cc3c(CNN4CCOCC4)c(O)ccc3nc2-1 [Compound 18, 9-(morpholin-4-amine)methyl-10-hydroxycamptothecin] |  | 100 to 500 | IC50 ([1]; Homo sapiens, SK-BR-3, 72 h): 50 to 100 nM
CCNCc1c(O)ccc2nc3c(cc12)Cn1c-3cc2c(c1=O)COC(=O)[C@]2(O)CC [Compound 20, 9-(ethylamine)methyl-10-hydroxycamptothecin] |  | 100 to 500 | 
CC[C@@]1(O)C(=O)OCc2c1cc1n(c2=O)Cc2cc3c(CNC(C)C)c(O)ccc3nc2-1 [Compound 21, 9-(isopropylamine)methyl-10-hydroxycamptothecin] | 100 to 500 |  | IC50 [1, 3]: 100 to 500 nM
CC[C@@]1(O)C(=O)OCc2c1cc1n(c2=O)Cc2cc3c4c(ccc3nc2-1)OCN(N1CCOCC1)C4 [Compound 22, 3-(N-morpholine)-1.3-oxazino[5,6][9,10]camptothecin] | 100 to 500 |  | 

Structure (SMILES) | IC50 [2, 4] [nM] | IC50 ([2]; Homo sapiens, OE33, 72 h) [nM] | further results
CC[C@@]1(O)C(=O)OCc2c1cc1n(c2=O)Cc2cc3c(CN(C)NC(=O)OC(C)(C)C)c(O)ccc3nc2-1 [Compound 23, 9-(1-methyl-2-Boc-hydrazine)methyl-10-hydroxycamptothecin] | < 50 |  | 
CC[C@@]1(O)C(=O)OCc2c1cc1n(c2=O)Cc2cc3c(CN(C)CCCN)c(O)ccc3nc2-1 [Compound 25, 9-(1-methyl-3-aminopropylamine)methyl-10-hydroxycamptothecin] | 100 to 500 |  | 
CC[C@@]1(O)C(=O)OCc2c1cc1n(c2=O)Cc2cc3c(CNN4CCCCC4)c(O)ccc3nc2-1 [Compound 26, 9-(piperidine-1-amine)methyl-10-hydroxycamptothecin] | 100 to 500 |  | 
CC[C@@]1(O)C(=O)OCc2c1cc1n(c2=O)Cc2cc3c(CN(C)CC4CCNCC4)c(O)ccc3nc2-1 [Compound 28, 9-(N-methyl(piperidine-4-methyl)amine)methyl-10-hydroxycamptothecin] |  | 100 to 500 | 
CC[C@@]1(O)C(=O)OCc2c1cc1n(c2=O)Cc2cc3c(CN4CCC5(CCNCC5)CC4)c(O)ccc3nc2-1 [Compound 29, 9-(3-(undeca-5,5-spirocyclo-3,9-diazane))methyl-10-hydroxycamptothecin] | 100 to 500 |  | 
CC[C@@]1(O)C(=O)OCc2c1cc1n(c2=O)Cc2cc3c(CNCCC4CCNCC4)c(O)ccc3nc2-1 [Compound 30, 9-(piperidine-4-ethylamine)methyl-10-hydroxycamptothecin] |  | 100 to 500 | 
CC[C@@]1(O)C(=O)OCc2c1cc1n(c2=O)Cc2cc3c(CN4CCC[C@H]4C(=O)OC(C)(C)C)c(O)ccc3nc2-1 [Compound 31, 9-(L-prolinetert-butyl ester)methyl-10-hydroxycamptothecin] | 100 to 500 |  | 
CC[C@@]1(O)C(=O)OCc2c1cc1n(c2=O)Cc2cc3c(CN4CCC(C(=O)OC)CC4)c(O)ccc3nc2-1 [Compound 33, 9-(1-piperidine-4-methylformate)methyl-10-hydroxycamptothecin] | 100 to 500 |  | 
CC[C@@]1(O)C(=O)OCc2c1cc1n(c2=O)Cc2cc3c(CN4CCC(C(=O)O)CC4)c(O)ccc3nc2-1 [Compound 34, 9-(1-piperidine-4-carboxyllic acid)methyl-10-hydroxycamptothecin] | > 500 |  | 
CC[C@@]1(O)C(=O)OCc2c1cc1n(c2=O)Cc2cc3c(CN[C@@H](C)C(=O)OC(C)(C)C)c(O)ccc3nc2-1 [Compound 35, 9-(L-alaninetert-butyl ester)methyl-10-hydroxycamptothecin] | 50 to 100 |  | 
CC[C@@]1(O)C(=O)OCc2c1cc1n(c2=O)Cc2cc3c(CN(C)[C@@H](C)C(=O)O)c(O)ccc3nc2-1 [Compound 36, 9-(N-methyl-L-alanine)methyl-10-hydroxycamptothecin] | 100 to 500 |  | 
CC[C@@]1(O)C(=O)OCc2c1cc1n(c2=O)Cc2cc3c(CNC4CCOCC4)c(O)ccc3nc2-1 [Compound 37, 9-(tetrahydropyran-4-amine)methyl-10-hydroxycamptothecin] | 100 to 500 |  | 
CC[C@@]1(O)C(=O)OCc2c1cc1n(c2=O)Cc2cc3c4c(ccc3nc2-1)OCN(CC(F)(F)F)C4 [Compound 40, 3-(N-(2,2,2-trifluoroethyl))-1.3-oxazino[5,6][9,10]camptothecin] | 100 to 500 |  | 
CC[C@@]1(O)C(=O)OCc2c1cc1n(c2=O)Cc2cc3c(CN[C@H]4CC[C@H](OC)CC4)c(O)ccc3nc2-1 [Compound 42, 9-(trans-4-methoxycyclohexylamine)methyl-10-hydroxycamptothecin] | 100 to 500 |  | 
CC[C@@]1(O)C(=O)OCc2c1cc1n(c2=O)Cc2cc3c(CNCC4CCOCC4)c(O)ccc3nc2-1 [Compound 43, 9-(tetrahydropyran-4-methylamine)methyl-10-hydroxycamptothecin] |  | 100 to 500 | 
CC[C@@]1(O)C(=O)OCc2c1cc1n(c2=O)Cc2cc3c(CN4CCN(C(=O)CO)CC4)c(O)ccc3nc2-1 [Compound 46, 9-(1-(4-hydroxyacetylpiperazine))methyl-10-hydroxycamptothecin] |  | 100 to 500 | 
CCc1c2c(nc3ccc(O)cc13)-c1cc3c(c(=O)n1C2)COC(=O)[C@]3(O)CC [SN38, 7-ethyl-10-hydroxycamptothecin, reference compound] |  |  | IC50 ([1]; read-out: IC50): < 50 nM; IC50 ([2]; read-out: IC50): < 50 nM
